This passage reports IC50 results from patent US20230014907A1, “INHIBITORS OF APOL1 AND METHODS OF USING SAME” (Vertex Pharmaceuticals Incorporated, priority 2020, published 2023).

Where two headings read alike, the source gives them in different places.

One may read the IC50 as the point on the concentration scale where inhibition reaches its midpoint.

For the experiment, the target named is T1, G1 APOL1 (Homo sapiens, UniProt O14791, I384M/S342G).
T1 construct: expressed in transfected cells
T1 sequence (O14791 28-398 S342G/I384M): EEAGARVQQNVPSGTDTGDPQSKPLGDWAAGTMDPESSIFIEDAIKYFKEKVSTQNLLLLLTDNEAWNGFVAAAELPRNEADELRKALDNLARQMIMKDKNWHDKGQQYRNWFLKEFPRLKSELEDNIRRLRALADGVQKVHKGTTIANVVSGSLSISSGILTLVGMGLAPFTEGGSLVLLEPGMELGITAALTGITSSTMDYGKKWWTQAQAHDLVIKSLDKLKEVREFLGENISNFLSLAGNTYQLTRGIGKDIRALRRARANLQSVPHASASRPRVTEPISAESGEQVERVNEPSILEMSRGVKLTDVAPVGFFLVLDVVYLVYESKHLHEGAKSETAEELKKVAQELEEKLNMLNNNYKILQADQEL
The experiment is described as follows: Acute APOL1 Thallium Assay with Inducible Stable Clones of HEK 293 Cells. It counts as cell-based. From the text: Acute APOL1 Thallium Assay with Inducible Stable Clones of HEK 293 Cells
Apolipoprotein L1 (APOL1) proteins form potassium-permeable cation pores in the plasma membrane. APOL1 risk variants (G1 and G2) induce greater potassium flux than G0 in HEK293 cells. This assay exploits the permeability of thallium (Tl+) through ligand-gated potassium channels. The dye produces a bright fluorescent signal upon binding to Tl+ conducted through potassium channels. The intensity of the Tl+ signal is proportional to the number of potassium channels in the open state. Therefore, it provides a functional indication of the potassium channel activities. During the initial dye-loading step, the Tl+ indicator dye as an acetoxymethyl (AM) ester enters the cells through passive diffusion. Cytoplasm esterases cleave the AM ester and relieve its active thallium-sensitive form. The cells are then stimulated with Tl+. The increase of fluorescence in the assay represents the influx of Tl+ into the cell specifically through the potassium channel (i.e. through APOL1 pores), providing a functional measurement of potassium channel/pore activity. The Thallium assay is conducted with cells expressing G1 APOL1.
APOL1 Cell Line (HEK T-Rex Stable Inducible Cell Line) • HEK T-Rex System • Tetracycline (Tet) inducible mammalian expression system. • Stably express the Tet repressor to regulate transcription. • Expression under the full-length CMV promoter. • APOL1 stable inducible cell line Clone used: G1 DC3.25
Tissue Culture Media • Cell Culture Medium • DMEM+10% FBS+P/S+5 μg/mL blasticidin+1 μg/mL puromycin. • 500 mL DMEM+55 mL FBS+5 mL P/S+280 μL blasticidin S HCl (10 mg/mL)+56 μL puromycin (10 mg/mL). • Cell Assay Medium • DMEM with 2% FBS+penicillin/streptomycin.
Instruments and Equipment • Nuaire cell culture hood, Cat. No. 540-600 • 37° C./5% CO2 incubator link to robotic arm, Liconic: STX110 • Molecular Devices FLIPR^Tetra High throughput cellular screening system, Cat. No. FT0324, Molecular Devices • ThermoFisher MultiDrop 384, Cat. No. 5840300 • Biotek Microfill, Cat. No. ASF1000A-4145 • BioRad TC10 cell counter, Cat. No. 145-0010
Cells Scaled Up from Frozen Vials • APOL1 G1 3.25 (HEK293 T-Rex) frozen vials: 5 million cells per vial • Step 1, Day 1: Defrost frozen vial into T-225. • Step 2, Day 5: (when 85% confluent): Split one T-225 at 3×10^6 cells per flask. • Step 3, Day 8: Splits cells to set up for the assay plates as described below.
T-Rex APOL1 HEK cells are split twice per week to keep the confluence state below 85% of the culture flask surface area. Cells can be kept until passage 25. • Cell Culture Medium • DMEM high glucose+10% FBS, +P/S, +5 μg/mL blasticidin, +1 μg/mL puromycin. • 500 mL DMEM, +55 mL FBS, +5 mL P/S, +280 μL blasticidin 10 mg/mL, +56 μL Puromycin 10 mg/mL. • Assay Media • Opti-MEM reduced serum medium from Invitrogen.
Preparation of Cell Assay Plates • Culture medium is removed from the x cm^2 T-flask by aspiration. • The cell monolayer is rinsed with PBS 1× at room temperature. PBS is removed by aspiration. • Cells are trypsinized using Trypsin. • The flasks are incubated at room temperature for 2-3 minutes. • Complete DMEM medium is then added. Cell suspension is then transferred to a 50 mL Falcon polypropylene tube. • Cells are then counted using a BioRad TC10 cell counter and the required amount of cells are centrifuged at 1200 RPM for 5 minutes. Required amount is 1.3×10^6 cells/mL APOL1 T-Rex HEK cells. • The pellet is suspended in the assay medium. • Using the MultiDrop, add 20 μL to each well (corresponds to 26000 cells total per well) of a 384-well black, transparent, flat bottom Poly-D coated plate. • Tetracycline as prepared in the following section is added to the cells before plating to induce APOL1 expression. • Plates are left at room temperature for 20 to 30 minutes before incubation at 37° C. and 5% CO2. […]

The mark [1] stands for this setting: HEK 293 inducible stable clones, G1 APOL1, read-out: Thallium Assay (IC50).

Consider `O=C(NCCc1c(-c2ccc(F)cc2)[nH]c2c(F)cc(F)cc12)OCC1(C(=O)O)CC1` [Compound 426, 1-[2-[5,7-difluoro-2-(4-fluorophenyl)-1H-indol-3-yl]ethylcarbamoyloxymethyl]cyclopropanecarboxylic acid], for which the IC50 under setting [1] was more than 1000 nM. The same measure, in the same setting: to `C[C@H](O)CNC(=O)OCCc1c(-c2ccc(F)cc2)[nH]c2c(F)cc(F)cc12` [Compound 462] belongs 250 to 1000 nM; to `CC(O)CCNC(=O)OCCc1c(-c2ccc(F)cc2)[nH]c2c(F)cc(F)cc12` (stereo not shown) [Compound 483], more than 1000 nM; to `CC(O)CCNC(=O)NCCc1c(-c2ccc(F)cc2)[nH]c2c(F)cc(F)cc12` (stereo not shown) [Compound 278], more than 1000 nM.

For `O=C(Cn1nccn1)NCCc1c(-c2ccc(F)cc2)[nH]c2c(F)cc(F)cc12` [Compound 387], the IC50 under setting [1] was more than 1000 nM. For the compound `CN(C)CCc1c(-c2ccc(F)cc2)[nH]c2c(F)cc(F)cc12` [Compound 429, 2-[5,7-difluoro-2-(4-fluorophenyl)-1H-indol-3-yl]-N,N-dimethyl-ethanamine], the IC50 was more than 1000 nM.

For `O=C(NC(CO)CO)OCCc1c(-c2ccc(F)cc2)[nH]c2c(F)cc(F)cc12` [Compound 437], the IC50 under setting [1] is less than 250 nM. Still for that read-out and setting: to `O=C(NCCc1c(-c2ccc(F)cc2)[nH]c2c(F)cc(F)cc12)c1cncnc1` [Compound 400] belongs more than 1000 nM; to `O=C(NCCc1ccncc1)NCCc1c(-c2ccc(F)cc2)[nH]c2c(F)cc(F)cc12` [Compound 288], more than 1000 nM; to `O=C(NCCc1c(-c2ccc(F)cc2)[nH]c2c(F)cc(F)cc12)NCC1(O)CCCC1` [Compound 266], more than 1000 nM. Still for that read-out and setting: to `O=C(Nc1cc(=O)[nH][nH]1)OCCc1c(-c2ccc(F)cc2)[nH]c2c(F)cc(F)cc12` [Compound 488] belongs more than 1000 nM; to `O=C(CN1CCCC1=O)NCCc1c(-c2ccc(F)cc2)[nH]c2c(F)cc(F)cc12` [Compound 375], more than 1000 nM. Same read-out and setting: to `CNC(=O)CC(=O)NCCc1c(-c2ccc(F)cc2)[nH]c2c(F)cc(F)cc12` [Compound 345] belongs more than 1000 nM; to `NC(=O)CCCc1c(-c2ccc(F)cc2)[nH]c2c(F)cc(F)cc12` [Compound 243], more than 1000 nM; to `COC1CC1NC(=O)OCCc1c(-c2ccc(F)cc2)[nH]c2c(F)cc(F)cc12` (stereo not shown) [Compound 479], more than 1000 nM. Take `CC1(CO)CCN1C(=O)OCCc1c(-c2ccc(F)cc2)[nH]c2c(F)cc(F)cc12` (racemic) [Compound 480]: the IC50 under setting [1] is more than 1000 nM. For `Cn1cc(CNC(=O)CCCc2c(-c3ccc(F)cc3)[nH]c3c(F)cc(F)cc23)cn1` [Compound 254], the IC50 under setting [1] is more than 1000 nM. The same measure, in the same setting: next, `C[C@@H](CO)NC(=O)CCc1c(-c2ccc(F)cc2)[nH]c2c(F)cc(Cl)cc12` [Compound 203]: more than 1000 nM; `O=C(NC1(CO)CC1)OCCc1c(-c2ccc(F)cc2)[nH]c2c(F)cc(F)cc12` [Compound 438]: less than 250 nM.

Turning to `O=C(CCc1c(-c2ccc(F)cc2)[nH]c2c(F)cc(F)cc12)NC1=CCNC1=O` [Compound 94, 3-[5,7-difluoro-2-(4-fluorophenyl)-1H-indol-3-yl]-N-(5-oxo-1,2-dihydropyrrol-4-yl)propanamide], the IC50 under setting [1] was more than 1000 nM. Regarding `CC(O)C(C)NC(=O)OCCc1c(-c2ccc(F)cc2)[nH]c2c(F)cc(F)cc12` (mixture of isomers) [Compound 453], the IC50 under setting [1] fell in the range of 250 to 1000 nM. On the same count and under the same terms, to `O=C(NC(CO)CF)OCCc1c(-c2ccc(F)cc2)[nH]c2c(F)cc(F)cc12` (stereo not shown) [Compound 471] belongs 250 to 1000 nM. The same measure, in the same setting: next, `CC(CC#N)NC(=O)NCCc1c(-c2ccc(F)cc2)[nH]c2c(F)cc(F)cc12` (racemic) [Compound 301]: less than 250 nM; `CN1CC(NC(=O)OCCc2c(-c3ccc(F)cc3)[nH]c3c(F)cc(F)cc23)CC1=O` (stereo not shown) [Compound 494]: more than 1000 nM; `O=C(COc1cccnc1)NCCc1c(-c2ccc(F)cc2)[nH]c2c(F)cc(F)cc12` [Compound 373]: more than 1000 nM. As to `CC1(C(=O)NCCc2c(-c3ccc(F)cc3)[nH]c3c(F)cc(F)cc23)COC1` [Compound 410], the IC50 under setting [1] lay within 250 to 1000 nM. Same read-out and setting: next, `CC1(CNC(=O)NCCc2c(-c3ccc(F)cc3)[nH]c3c(F)cc(F)cc23)COC1` [Compound 298]: more than 1000 nM; `Cn1cc(CNC(=O)CCCc2c(-c3ccc(F)cc3)[nH]c3c(F)cc(F)cc23)nn1` [Compound 251]: more than 1000 nM. On the same count and under the same terms, next, `O=C(CC1CC(=O)NC(=O)C1)NCCc1c(-c2ccc(F)cc2)[nH]c2c(F)cc(F)cc12` [Compound 318]: more than 1000 nM; `O=C(NCCc1c(-c2ccc(F)cc2)[nH]c2c(F)cc(F)cc12)[C@H]1CC[C@@H](O)CC1` [Compound 324]: more than 1000 nM; `CNCCc1c(-c2ccc(F)cc2)[nH]c2c(F)cc(F)cc12` [Compound 428, 2-[5,7-difluoro-2-(4-fluorophenyl)-1H-indol-3-yl]-N-methyl-ethanamine]: more than 1000 nM. The same measure, in the same setting: next, `O=C(N[C@H]1CCOC1)OCCc1c(-c2ccc(F)cc2)[nH]c2c(F)cc(F)cc12` [Compound 469]: 250 to 1000 nM. With `CC(=O)NCCc1c(-c2ccc(F)cc2)[nH]c2c(F)cc(F)cc12` [Compound 418, N-[2-[5,7-difluoro-2-(4-fluorophenyl)-1H-indol-3-yl]ethyl]acetamide], the half-maximal inhibitory concentration (IC50) under setting [1] is more than 1000 nM. The same measure, in the same setting: to `Cn1cc(CNC(=O)OCCc2c(-c3ccc(F)cc3)[nH]c3c(F)cc(F)cc23)nn1` [Compound 490] belongs more than 1000 nM. On the same count and under the same terms, to `O=C1N[C@H](C(=O)NCCc2c(-c3ccc(F)cc3)[nH]c3c(F)cc(F)cc23)CCO1` [Compound 323] belongs more than 1000 nM.

Take `C[C@]1(O)C[C@@H](NC(=O)OCCc2c(-c3ccc(F)cc3)[nH]c3c(F)cc(F)cc23)C1` [Compound 489]: under setting [1], the IC50 is more than 1000 nM. Still for that read-out and setting: next, `O=C(NCCc1c(-c2ccc(F)cc2)[nH]c2c(F)cc(F)cc12)c1cnccn1` [Compound 398]: more than 1000 nM; `O=C(CNC(=O)NCCc1c(-c2ccc(F)cc2)[nH]c2c(F)cc(F)cc12)NO` [Compound 260]: more than 1000 nM. Still for that read-out and setting: next, `O=C(CCc1c(-c2ccc(F)cc2)[nH]c2c(F)cc(Cl)cc12)NC(CO)CF` (stereo not shown) [Compound 196]: 250 to 1000 nM; `Cn1nccc1C(=O)NCCc1c(-c2ccc(F)cc2)[nH]c2c(F)cc(F)cc12` [Compound 392]: 250 to 1000 nM.

Regarding `NC(=O)CCC(=O)NCCc1c(-c2ccc(F)cc2)[nH]c2c(F)cc(F)cc12` [Compound 343], the IC50 under setting [1] was more than 1000 nM.

In the case of `O=C(NCCc1c(-c2ccc(F)cc2)[nH]c2c(F)cc(F)cc12)C(O)C(F)(F)F` (stereo not shown) [Compound 327], under setting [1], the IC50 is 250 to 1000 nM. Same read-out and setting: to `CC(C)(C)OC(=O)NC1(C(=O)NCCc2c(-c3ccc(F)cc3)[nH]c3c(F)cc(F)cc23)CCC1` [Compound 311] belongs more than 1000 nM.
